Laboratory results from US5202315A, “Cephalosporin compounds” (Lucky, Ltd., priority 1989, dated 1993).
In brackets after ≈: the same amount, converted by molar mass. Where two headings read alike, the source gives them in different places.

Columns and labels:
[1] = system: Acinetobacter calcoaceticus ATCC 15473; experiment: Antibacterial activity, MIC; type: cell-based; details: ATCC15473, ATCC 15473, agar two-fold dilution, 37° C., 20 hours, read-out: MIC
How it was run: (§1)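 The compound is dispersed into Mueller-Hinton agar across a two-fold dilution series. Each strain is applied as 2 μl of a 10^7 CFU/ml suspension and grown 20 hours at 37 °C.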

[2] = system: Bacillus cereus ATCC 11778; experiment: Antibacterial activity, MIC; type: cell-based; details: ATCC11778, ATCC 11778, agar two-fold dilution, 37° C., 20 hours, read-out: MIC
How it was run: as §1

[3] = system: Bacillus megaterium ATCC 9885; experiment: Antibacterial activity, MIC; type: cell-based; details: Priestia megaterium, ATCC9885; ATCC 9885; agar two-fold dilution, 37° C., 20 hours; read-out: MIC
How it was run: as §1

[4] = system: Citrobacter freundii ATCC 8090; experiment: Antibacterial activity, MIC; type: cell-based; details: ATCC8090, ATCC 8090, agar two-fold dilution, 37° C., 20 hours, read-out: MIC
How it was run: as §1

[5] = system: Enterobacter aerogenes ATCC 29751; experiment: Antibacterial activity, MIC; type: cell-based; details: Klebsiella aerogenes, ATCC29751; ATCC 29751; agar two-fold dilution, 37° C., 20 hours; read-out: MIC
How it was run: as §1

[6] = system: Enterobacter cloacae ATCC 27508; experiment: Antibacterial activity, MIC; type: cell-based; details: ATCC27508, ATCC 27508, agar two-fold dilution, 37° C., 20 hours, read-out: MIC
How it was run: as §1

[7] = system: Escherichia coli ATCC 10536; experiment: Antibacterial activity, MIC; type: cell-based; details: ATCC10536, agar two-fold dilution, 37° C., 20 hours
How it was run: as §1

[8] = system: Escherichia coli ATCC 25922; experiment: Antibacterial activity, MIC; type: cell-based; details: ATCC25922, agar two-fold dilution, 37° C., 20 hours
How it was run: as §1

[9] = system: Klebsiella pneumoniae ATCC 10031; experiment: Antibacterial activity, MIC; type: cell-based; details: ATCC10031, ATCC 10031, agar two-fold dilution, 37° C., 20 hours, read-out: MIC
How it was run: as §1

[10] = system: Micrococcus luteus ATCC 9341; experiment: Antibacterial activity, MIC; type: cell-based; details: ATCC9341, ATCC 9341, agar two-fold dilution, 37° C., 20 hours, read-out: MIC
How it was run: as §1

[11] = system: Morganella morganii ATCC 8076h; experiment: Antibacterial activity, MIC; type: cell-based; details: ATCC8076H, agar two-fold dilution, 37° C., 20 hours
How it was run: as §1

[12] = system: Proteus mirabilis ATCC 25933; experiment: Antibacterial activity, MIC; type: cell-based; details: ATCC25933, ATCC 25933, agar two-fold dilution, 37° C., 20 hours, read-out: MIC
How it was run: as §1

[13] = system: Proteus vulgaris ATCC 6059; experiment: Antibacterial activity, MIC; type: cell-based; details: ATCC6059, ATCC 6059, agar two-fold dilution, 37° C., 20 hours, read-out: MIC
How it was run: as §1

[14] = system: Providencia rettgeri ATCC 9250; experiment: Antibacterial activity, MIC; type: cell-based; details: ATCC9250, agar two-fold dilution, 37° C., 20 hours
How it was run: as §1

[15] = system: Pseudomonas aeruginosa ATCC 10145; experiment: Antibacterial activity, MIC; type: cell-based; details: ATCC10145, ATCC 10145, agar two-fold dilution, 37° C., 20 hours, read-out: MIC
How it was run: as §1

[16] = system: Pseudomonas aeruginosa ATCC 25619; experiment: Antibacterial activity, MIC; type: cell-based; details: ATCC25619, ATCC 25619, agar two-fold dilution, 37° C., 20 hours, read-out: MIC
How it was run: as §1

[17] = system: Pseudomonas aeruginosa ATCC 27853; experiment: Antibacterial activity, MIC; type: cell-based; details: ATCC27853, ATCC 27853, agar two-fold dilution, 37° C., 20 hours, read-out: MIC
How it was run: as §1

[18] = system: Salmonella typhimurium ATCC 14028; experiment: Antibacterial activity, MIC; type: cell-based; details: Salmonella enterica; ATCC 14028; agar two-fold dilution, 37° C., 20 hours; read-out: MIC
How it was run: as §1

[19] = system: Serratia marcescens ATCC 27117; experiment: Antibacterial activity, MIC; type: cell-based; details: ATCC27117, ATCC 27117, agar two-fold dilution, 37° C., 20 hours, read-out: MIC
How it was run: as §1

[20] = system: Shigella flexneri ATCC 11836; experiment: Antibacterial activity, MIC; type: cell-based; details: ATCC11836, agar two-fold dilution, 37° C., 20 hours
How it was run: as §1

[21] = system: Shigella sonnei ATCC 11060; experiment: Antibacterial activity, MIC; type: cell-based; details: ATCC11060, ATCC 11060, agar two-fold dilution, 37° C., 20 hours, read-out: MIC
How it was run: as §1

[22] = system: Staphylococcus aureus ATCC 10537; experiment: Antibacterial activity, MIC; type: cell-based; details: ATCC10537, ATCC 10537, agar two-fold dilution, 37° C., 20 hours, read-out: MIC
How it was run: as §1

[23] = system: Staphylococcus aureus ATCC 6538p; experiment: Antibacterial activity, MIC; type: cell-based; details: ATCC6538P, ATCC 6538p, agar two-fold dilution, 37° C., 20 hours, read-out: MIC
How it was run: as §1

[24] = system: Staphylococcus epidermidis ATCC 12228; experiment: Antibacterial activity, MIC; type: cell-based; details: ATCC12228, ATCC 12228, agar two-fold dilution, 37° C., 20 hours, read-out: MIC
How it was run: as §1

[25] = system: Streptococcus faecalis ATCC 29212; experiment: Antibacterial activity, MIC; type: cell-based; details: Enterococcus faecalis, ATCC29212; ATCC 29212; agar two-fold dilution, 37° C., 20 hours; read-out: MIC
How it was run: as §1

[26] = In-vivo absorbency (plasma concentrations & pharmacokinetic parameters); parameters: species or system SD rat (male); details: plasma, SD male rat, iv 20 mg/kg; for half-life: rat, iv, 20 mg/kg
From the text: The blood samples from the femoral vein of the rats were taken every hour after administration, and analyzed by bio-assay(agar well method).
Tested animal: SD male Rat (220~340 g)

[27] = system: Pseudomonas; experiment: Antibacterial activity; type: cell-based; details: statement in words
[28] = In-vivo absorbency (plasma concentrations & pharmacokinetic parameters); parameters: species or system SD rat (male); details: plasma, SD male rat, iv 20 mg/kg, read-out: Plasma Conc.

## CC(C)(O/N=C(\C(=O)NC1C(=O)N2C(C(=O)[O-])=C(CSc3nc(N)cc(N)[n+]3N)CS[C@H]12)c1csc(N)n1)C(=O)O (stereo partly shown) [Compound I-15, 7-[(Z)-2-(2-aminothiazol-4-yl)-2-(2-carboxyprop-2-oxyimino)acetamido]-3-(1,4,6-triaminopyrimidinium-2-yl) thiomethyl-3-cephem-4-carboxylate]
[1]
  MIC: 2 µg/mL (≈ 3.2 µM)
[2]
  MIC: 64 µg/mL (≈ 102 µM)
[3]
  MIC: 0.5 µg/mL (≈ 0.8 µM)
[4]
  MIC: 0.063 µg/mL (≈ 0.101 µM)
[5]
  MIC: 1 µg/mL (≈ 1.6 µM)
[6]
  MIC: 0.016 µg/mL (≈ 0.0256 µM)
[7]
  MIC: 0.063 µg/mL (≈ 0.101 µM)
[8]
  MIC: 0.063 µg/mL (≈ 0.101 µM)
[9]
  MIC: 0.063 µg/mL (≈ 0.101 µM)
[10]
  MIC: 0.25 µg/mL (≈ 0.4 µM)
[11]
  MIC: ≤ 0.008 µg/mL
[12]
  MIC: 0.016 µg/mL (≈ 0.0256 µM)
[13]
  MIC: 0.016 µg/mL (≈ 0.0256 µM)
[14]
  MIC: ≤ 0.008 µg/mL
[15]
  MIC: 1 µg/mL (≈ 1.6 µM)
[16]
  MIC: 1 µg/mL (≈ 1.6 µM)
[17]
  MIC: 1 µg/mL (≈ 1.6 µM)
[18]
  MIC: 0.13 µg/mL (≈ 0.208 µM)
[19]
  MIC: 0.063 µg/mL (≈ 0.101 µM)
[20]
  MIC: 0.031 µg/mL (≈ 0.0496 µM)
[21]
  MIC: 0.063 µg/mL (≈ 0.101 µM)
[22]
  MIC: 2 µg/mL (≈ 3.2 µM)
[23]
  MIC: 4 µg/mL (≈ 6.4 µM)
[24]
  MIC: 2 µg/mL (≈ 3.2 µM)
[25]
  MIC: > 128 µg/mL
[26]; 60 min, read-out: Plasma Conc.
  concentration at 1 h: 2400 ng/mL
[26]; 120 min, read-out: Plasma Conc.
  concentration at 2 h: 600 ng/mL
[26]; two compartment model
  AUC: 43400 ng·h/mL
[26]; two compartment model, read-out: T1/2 (α)
  half-life: 3 min
[26]; two compartment model, read-out: T1/2 (β)
  half-life: 29 min
[27]
  antibacterial activities, especially against Pseudomonas: excellent
[28]; 1 min
  concentration at 1 min: 148000 ng/mL
[28]; 2.5 min
  concentration at 2.5 min: 104000 ng/mL
[28]; 5 min
  concentration at 5 min: 71000 ng/mL
[28]; 10 min
  concentration at 10 min: 53000 ng/mL
[28]; 20 min
  concentration at 20 min: 22000 ng/mL
[28]; 40 min
  concentration at 40 min: 10000 ng/mL
